Patent US6362134B1, “Herbicidal 1,2,4,6-thiatriazines” (Syngenta Investment Corporation, priority 1996, dated 2002)

Legend:
Format in all cases: in vivo
Sinapis [1] = assay: Post-emergent herbicidal action (contact herbicide); parameters: key: 1=complete damage; 9=no action; Ratings of 1 to 4 (in particular 1 to 3) mean a good to very good herbicidal action; details: 2000 g of active substance/ha, sprayed in the 4- to 6-leaf stage, evaluated after about 18 days, ratings scale 1-9
Protocol: (§1) Monocotyledon and dicotyledon test plants are grown in plastic pots with standard soil in a greenhouse and, in the 4- to 6-leaf stage, are sprayed with an aqueous suspension of the test substances of the formula 1, prepared from a 25% wettable power (Example F3, b)), corresponding to a dosage of 2000 g of active substance/ha (500 l of water/ha). The test plants are then grown further in the greenhouse under optimum conditions. After a test period of about 18 days, the test is evaluated with a ratings scale of 9 levels (1=complete damage, 9=no action). Ratings of 1 to 4 (in particular 1 to 3) mean a good to very good herbicidal action.
(§2) Test plants: Sinapis, Stellaria

Stellaria [2] = assay: as above; parameters: key: 1=complete damage; 9=no action; Ratings of 1 to 4 (in particular 1 to 3) mean a good to very good herbicidal action; details: 2000 g of active substance/ha, sprayed in the 4- to 6-leaf stage, evaluated after about 18 days, ratings scale 1-9
Protocol: as §1, §2

Setaria = assay: Herbicidal action before emergence of the plants (pre-emergent action); parameters: key: 1=complete damage; 9=no action; Ratings of 1 to 4 (in particular 1 to 3) mean a good to very good herbicidal action; details: 2000 g of active substance/ha, sprayed immediately after sowing, evaluated after 3 weeks, ratings scale of nine levels
Protocol: (§3) Monocotyledon and dicotyledon test plants are sown in standard soil in plastic pots. Immediately after sowing, the test substances are sprayed on (500 l of water/ha) in an aqueous suspension prepared from a 25% wettable powder (Example F3, b)), corresponding to a dosage of 2000 g of active substance/ha. The test plants are then grown under optimum conditions in a greenhouse. After a test period of 3 weeks, the test is evaluated with a ratings scale of nine levels (1=complete damage, 9=no action). Ratings of 1 to 4 (in particular 1 to 3) mean a good to very good herbicidal action.
(§4) Test plants: Avena, Setaria, Sinapis, Stellaria

Sinapis [3] = assay: as above; parameters: key: 1=complete damage; 9=no action; Ratings of 1 to 4 (in particular 1 to 3) mean a good to very good herbicidal action; details: 2000 g of active substance/ha, sprayed immediately after sowing, evaluated after 3 weeks, ratings scale of nine levels
Protocol: as §3, §4

Stellaria [4] = assay: as above; parameters: key: 1=complete damage; 9=no action; Ratings of 1 to 4 (in particular 1 to 3) mean a good to very good herbicidal action; details: 2000 g of active substance/ha, sprayed immediately after sowing, evaluated after 3 weeks, ratings scale of nine levels
Protocol: as §3, §4

Avena = assay: as above; details: 2000 g of active substance/ha, sprayed immediately after sowing, evaluated after 3 weeks, ratings scale of nine levels (1=complete damage, 9=no action)
Protocol: as §3, §4

Row | SMILES | Post-emergent action, rating, Sinapis (Sinapis [1]) | Post-emergent action, rating, Stellaria (Stellaria [2]) | Pre-emergent action, rating, Setaria (Setaria) | Pre-emergent action, rating, Sinapis (Sinapis [3]) | Pre-emergent action, rating, Stellaria (Stellaria [4]) | Pre-emergent action, rating, Avena (Avena)
1 | NC1=NC(OCC(Cl)(Cl)C(F)(F)F)=NS(OCCCl)=N1 (stereo not shown) [5.337] | 1 | 5 | – | – | – | –
2 | CN(C1CCCCC1)S1=NC(N)=NC(Oc2c(F)c(F)c(F)c(F)c2F)=N1 (stereo not shown) [6.7] | 2 | 3 | – | – | – | –
3 | NC1=NC(Oc2c(F)c(F)c(F)c(F)c2F)=NS(NC2CCCCC2)=N1 (stereo not shown) [6.17] | 3 | 4 | – | – | – | –
4 | CCCN(CCC)S1=NC(N)=NC(Oc2c(F)c(F)c(F)c(F)c2F)=N1 (stereo not shown) [6.21] | 2 | 4 | – | – | – | –
5 | CC1CC(C)CN(S2=NC(N)=NC(Oc3cc(F)ccc3F)=N2)C1 (stereo not shown) [6.23] | 2 | 4 | – | – | – | –
6 | NC1=NC(Oc2c(F)c(F)c(F)c(F)c2F)=NS(N2CCCCC2)=N1 (stereo not shown) [6.53, 3-amino-5-pentafluorophenoxy-1-(piperidin-1-yl)thiatriazine] | – | – | 3 | 1 | 1 | 3
7 | NC1=NC(Oc2cc(F)ccc2F)=NS(N2CCCCCC2)=N1 (stereo not shown) [6.57] | 2 | 4 | – | – | – | –
8 | CC1CCC(C)N1S1=NC(N)=NC(Oc2c(F)c(F)c(F)c(F)c2F)=N1 (stereo not shown) [6.63] | – | – | 3 | 1 | 1 | 4
9 | NC1=NC(Oc2c(F)c(F)c(F)c(F)c2F)=NS(N2CCN(c3ccccc3)CC2)=N1 (stereo not shown) [6.77] | – | – | 3 | 1 | 1 | 4
10 | NC1=NS(N2CC3CCC(CC3)C2)=NC(Oc2cc(F)ccc2F)=N1 (stereo not shown) [6.81] | 2 | 3 | – | – | – | –
11 | CC1N(S2=NC(N)=NC(Oc3c(F)c(F)c(F)c(F)c3F)=N2)CCCC1(C)C (stereo not shown) [6.90] | 2 | 4 | – | – | – | –
12 | NC1=NC(Oc2c(F)c(F)c(F)c(F)c2F)=NS(N2CCCC3CCCCCCC32)=N1 (stereo not shown) [6.102] | 2 | 3 | – | – | – | –
13 | NC1=NC(Oc2cc(F)ccc2F)=NS(N2CCc3ccccc3CC2)=N1 (stereo not shown) [6.164] | 1 | 3 | – | – | – | –
14 | CC1CC(NS2=NC(N)=NC(Oc3c(F)c(F)c(F)c(F)c3F)=N2)CC(C)(C)C1 (stereo not shown) [6.168] | 2 | 3 | – | – | – | –
15 | NC1=NS(N2CCCCCCCCCCCC2)=NC(Oc2c(F)c(F)c(F)c(F)c2F)=N1 (stereo not shown) [6.177] | 2 | 2 | – | – | – | –
16 | CC12CCCCC1N(S1=NC(N)=NC(Oc3c(F)c(F)c(F)c(F)c3F)=N1)CCC2 (stereo not shown) [6.181] | 2 | 3 | – | – | – | –
17 | CC(C)N(C(C)C)S1=NC(Oc2c(F)c(F)c(F)c(F)c2F)=NC(N)=N1 (stereo not shown) [6.247] | 3 | 4 | – | – | – | –
18 | CC1CCN(S2=NC(Oc3cc(F)ccc3F)=NC(N)=N2)CC(C)(C)C1 (stereo not shown) [6.249] | 1 | 2 | – | – | – | –
19 | NC1=NS(N2CCC3CCCCC3CC2)=NC(Oc2c(F)c(F)c(F)c(F)c2F)=N1 (stereo not shown) [6.283] | 1 | 4 | – | – | – | –
20 | NC1=NS(N2CCCCCCCCCC2)=NC(Oc2c(F)c(F)cc(F)c2F)=N1 (stereo not shown) [6.320] | 2 | 3 | – | – | – | –
